Source: patent US20150141435A1, “2-PYRIDONE ANTIMICROBIAL COMPOSITIONS” (Emergent BioSolutions, priority 2010, published 2015)
Where a name gives a salt, the structure may show the parent alone. Read-outs that look alike come from different tables or passages of the source.

Columns and labels:
Format in all cases: cell-based
A. baumannii ATCC 19606 = assay: MIC, CLSI broth microdilution (Table 2); conditions: Acinetobacter baumannii
E. coli ATCC 25922 = assay: MIC, CLSI broth microdilution (Table 2); conditions: Escherichia coli
H. influenzae ATCC 49247 = assay: MIC, CLSI broth microdilution (Table 2); conditions: Haemophilus influenzae
K. pneumoniae ATCC 33495 = assay: MIC, CLSI broth microdilution (Table 2); conditions: Klebsiella pneumoniae
E. faecium ATCC 19434 = assay: MIC, CLSI broth microdilution (Table 1); conditions: Enterococcus faecium
S. aureus ATCC 25923 = assay: MIC, CLSI broth microdilution (Table 1); conditions: Staphylococcus aureus
S. pneumonia ATCC 49619 = assay: MIC, CLSI broth microdilution (Table 1); conditions: Streptococcus pneumoniae
[1] = test system: S. aureus BAA-1720 (MRSA, FQ-R); assay: MIC, CLSI broth microdilution (Table 1); conditions: Staphylococcus aureus, read-out: MIC S. aureus BAA-1720 (MRSA, FQ-R)
[2] = test system: S. maltophilia ATCC 17677; assay: MIC, CLSI broth microdilution (Table 2); conditions: Stenotrophomonas maltophilia
E. faecalis ATCC 29212 = assay: MIC, CLSI broth microdilution (Table 1); conditions: Enterococcus faecalis
P. aeruginosa ATCC 27853 = assay: MIC, CLSI broth microdilution (Table 2); conditions: Pseudomonas aeruginosa
[3] = test system: S. aureus ATCC 43300 (MRSA, FQ-S); assay: MIC, CLSI broth microdilution (Table 1); conditions: Staphylococcus aureus, read-out: MIC S. aureus ATCC 43300 (MRSA, FQ-S)
[4] = ATCC19606, Gram negative, MHB, 37° C., 16-20 hours, read-out: MIC A. baumannii B. ATCC 19606
[5] = ATCC25922, Gram negative, MHB, 37° C., 16-20 hours, read-out: MIC E. coli ATCC 25922
[6] = ATCC49247, Gram negative, MHB, 37° C., 16-20 hours, read-out: MIC H. influenzae ATCC 49247
[7] = ATCC33495, Gram negative, MHB, 37° C., 16-20 hours, read-out: MIC K. pneumoniae ATCC 33495
[8] = ATCC19434, Gram positive, MHB, 37° C., 16-20 hours, read-out: MIC E. faecium ATCC 19434
[9] = ATCC25923, Gram positive, MHB, 37° C., 16-20 hours, read-out: MIC S. aureus ATCC 25923
[10] = ATCC49619, Gram positive, MHB, 37° C., 16-20 hours, read-out: MIC S. pneumonia ATCC 49619
[11] = Gram positive, MHB, 37° C., 16-20 hours
[12] = ATCC17677, Gram negative, MHB, 37° C., 16-20 hours, read-out: MIC S. maltophilia ATCC 17677
[13] = ATCC29212, Gram positive, MHB, 37° C., 16-20 hours, read-out: MIC E. faecalis ATCC 29212
[14] = ATCC27853, Gram negative, MHB, 37° C., 16-20 hours, read-out: MIC P. aeruginosa ATCC 27853

Compound	MIC (A. baumannii ATCC 19606; [4]) [µg/mL]	MIC (E. coli ATCC 25922; [5]) [µg/mL]	MIC (H. influenzae ATCC 49247; [6]) [µg/mL]	MIC (K. pneumoniae ATCC 33495; [7]) [µg/mL]	MIC (E. faecium ATCC 19434; [8]) [µg/mL]	MIC (S. aureus ATCC 25923; [9]) [µg/mL]	MIC (S. pneumonia ATCC 49619; [10]) [µg/mL]	MIC [1, 11] [µg/mL]	MIC [2, 12] [µg/mL]	MIC (E. faecalis ATCC 29212; [13]) [µg/mL]	MIC (P. aeruginosa ATCC 27853; [14]) [µg/mL]	MIC [3, 11] [µg/mL]	also measured
CC(=O)Nc1ccc(-c2ccn3c(=O)c(C(=O)O)cc(C4CC4)c3c2C)cc1 [Example 13 K salt, 8-(4-acetamido-phenyl)-1-cyclopropyl-9-methyl-4-oxo-4H-quinolizine-3-carboxylic acid]	0.5	0.125	0.016	0.5	0.5	0.008 to 0.016	0.032	0.25	0.5	0.016	8	0.008	–
Cc1c(-c2cc(F)c(N)c(F)c2)ccn2c(=O)c(C(=O)O)cc(C3CC3)c12 [Example 39 K salt, 8-(4-amino-3,5-difluoro-phenyl)-1-cyclopropyl-9-methyl-4-oxo-4H-quinolizine-3-carboxylic acid]	–	–	–	–	–	–	–	–	–	–	–	–	MIC (A. baumannii ATCC 19606; ATCC19606, read-out: MIC A. baumannii B. ATCC 19606): 0.064 µg/mL; MIC (E. coli ATCC 25922; ATCC25922, read-out: MIC E. coli ATCC 25922): 0.064 µg/mL; MIC (H. influenzae ATCC 49247; ATCC49247, read-out: MIC H. influenzae ATCC 49247): ≤ 0.004 µg/mL; MIC (K. pneumoniae ATCC 33495; ATCC33495, read-out: MIC K. pneumoniae ATCC 33495): 0.125 µg/mL; MIC (E. faecium ATCC 19434; ATCC19434, read-out: MIC E. faecium ATCC 19434): 0.25 µg/mL; MIC (S. aureus ATCC 25923; ATCC25923, read-out: MIC S. aureus ATCC 25923): ≤ 0.004 µg/mL; MIC (S. pneumonia ATCC 49619; ATCC49619, read-out: MIC S. pneumonia ATCC 49619): 0.032 µg/mL; MIC [1]: 0.125 µg/mL; MIC ([2]; ATCC17677, read-out: MIC S. maltophilia ATCC 17677): 0.064 µg/mL; MIC (E. faecalis ATCC 29212; ATCC29212, read-out: MIC E. faecalis ATCC 29212): 0.016 µg/mL; MIC (P. aeruginosa ATCC 27853; ATCC27853, read-out: MIC P. aeruginosa ATCC 27853): 2 µg/mL; MIC [3]: ≤ 0.004 µg/mL
COc1cc(-c2ccn3c(=O)c(C(=O)O)cc(C4CC4)c3c2C)ccc1N [Example 12 K salt, 8-(4-amino-3-methoxy-phenyl)-1-cyclopropyl-9-methyl-4-oxo-4H-quinolizine-3-carboxylic acid]	0.25 to 0.5	0.25	0.032	0.5	1	0.016 to 0.032	0.25	0.5 to 1	0.5	0.064	8	0.016	–
Cc1c(-c2ccc(N)c(Cl)c2)ccn2c(=O)c(C(=O)O)cc(C3CC3)c12 [Example 11 K salt, 8-(4-amino-3-chloro-phenyl)-1-cyclopropyl-9-methyl-4-oxo-4H-quinolizine-3-carboxylic acid]	0.064	0.064	≤ 0.004	0.125	0.25	≤ 0.004	0.032	0.125	0.125	0.016	2	≤ 0.004	–
Cc1c(-c2cccnc2)ccn2c(=O)c(C(=O)O)cc(C3CC3)c12 [Example 17 K salt, 1-cyclopropyl-9-methyl-4-oxo-8-(pyridin-3-yl)-4H-quinolizine-3-carboxylic acid]	0.125 to 0.25	0.064	≤ 0.004	0.125	1	0.016	0.125	1	0.25	0.064	2 to 4	0.016	–
Cc1ccc(-c2ccn3c(=O)c(C(=O)O)cc(C4CC4)c3c2C)cc1 [Example 33 K salt, 1-cyclopropyl-8-(4-methyl-phenyl)-9-methyl-4-oxo-4H-quinolizine-3-carboxylic acid]	0.5	0.25	0.016 to 0.032	0.5 to 1	0.5 to 1	0.016 to 0.032	0.25	0.5	0.5	0.064	2	0.016	–
Cc1c(-c2cc(Cl)c(N)c(Cl)c2)ccn2c(=O)c(C(=O)O)cc(C3CC3)c12 [Example 29 K salt, 1-cyclopropyl-8-(4-amino-3,5-dichloro-phenyl)-9-methyl-4-oxo-4H-quinolizine-3-carboxylic acid]	0.25	0.25	0.008 to 0.016	0.5 to 1	0.5	≤ 0.004	0.064	0.125	0.25	0.008 to 0.016	4	0.008	–
Cc1c(-c2ccc(NC(N)=O)cc2)ccn2c(=O)c(C(=O)O)cc(C3CC3)c12 [Example 24 K salt, 1-cyclopropyl-9-methyl-4-oxo-8-(4-ureido-phenyl)-4H-quinolizine-3-carboxylic acid]	4	0.125 to 0.25	0.016	0.5	0.5	0.032 to 0.064	0.032	> 8	> 8	0.032	8	0.032	–

Now from value to compound, other results behind:

MIC (A. baumannii ATCC 19606; [4]) [µg/mL]	MIC (E. coli ATCC 25922; [5]) [µg/mL]	MIC (H. influenzae ATCC 49247; [6]) [µg/mL]	MIC (K. pneumoniae ATCC 33495; [7]) [µg/mL]	MIC (E. faecium ATCC 19434; [8]) [µg/mL]	MIC (S. aureus ATCC 25923; [9]) [µg/mL]	MIC (S. pneumonia ATCC 49619; [10]) [µg/mL]	MIC [1, 11] [µg/mL]	MIC [2, 12] [µg/mL]	MIC (E. faecalis ATCC 29212; [13]) [µg/mL]	MIC (P. aeruginosa ATCC 27853; [14]) [µg/mL]	MIC [3, 11] [µg/mL]	Compound	also measured
0.125 to 0.25	0.125	0.008	0.25	0.5	0.016	0.25	0.5	0.25	0.064	2	0.016	Cc1c(-c2ccc(F)cc2)ccn2c(=O)c(C(=O)O)cc(C3CC3)c12 [Example 44 K salt, 1-cyclopropyl-8-(4-fluoro-phenyl)-9-methyl-4-oxo-4H-quinolizine-3-carboxylic acid]	–
> 8	> 8	0.064	> 8	> 8	2	1	8	> 8	0.5	> 8	0.125	Cc1c(-c2ccc(C(=O)O)cc2)ccn2c(=O)c(C(=O)O)cc(C3CC3)c12 [Example 37 K salt, 8-(4-carboxy-phenyl)-1-cyclopropyl-9-methyl-4-oxo-4H-quinolizine-3-carboxylic acid]	–
0.5	0.25	0.032	1 to 2	1	0.016	0.25	0.5 to 1	0.5	0.032 to 0.064	4	0.016	COc1ccc(-c2ccn3c(=O)c(C(=O)O)cc(C4CC4)c3c2C)cc1 [Example 47 K salt, 1-cyclopropyl-8-(4-methoxy-phenyl)-9-methyl-4-oxo-4H-quinolizine-3-carboxylic acid]	–
0.25	0.125 to 0.25	0.016	0.5 to 1	2	0.016	0.125	0.5 to 1	0.25	0.064	> 8	0.016	Cc1c(-c2ccc(C#N)c(F)c2)ccn2c(=O)c(C(=O)O)cc(C3CC3)c12 [Example 40 K salt, 8-(4-cyano-3-fluoro-phenyl)-1-cyclopropyl-9-methyl-4-oxo-4H-quinolizine-3-carboxylic acid]	–
0.5	0.125	0.008	0.25	0.5	0.016 to 0.032	0.064	0.5	0.125	0.032	8	0.016	Cc1c(-c2ccc(C(N)=O)cc2)ccn2c(=O)c(C(=O)O)cc(C3CC3)c12 [Example 36 K salt, 8-(4-carbamoyl-phenyl)-1-cyclopropyl-9-methyl-4-oxo-4H-quinolizine-3-carboxylic acid]	–
